This passage reports PAE and MIC results from ChEMBL document CHEMBL1629634, “Postantibiotic effect of tigecycline against 14 gram-positive organisms” (Antimicrob Agents Chemother, 2009).

For assay [1], the system named is Staphylococcus aureus. The assay can be described thus: Antibacterial activity against vancomycin-intermediate methicillin-resistant Staphylococcus aureus assessed as post-antibiotic sub-MIC effect at 0.2 times MIC concentration pretreated with 10 times MIC concentration for 1 hr followed by 1:1000 dilution by viable plate count method. The assay is classed as functional.

Assay [2] deals with Enterobacter cloacae. The assay can be described thus: Antibacterial activity against Enterobacter cloacae assessed as post-antibiotic sub-MIC effect at 0.2 times MIC concentration pretreated with 2 times MIC concentration for 1 hr followed by 1:1000 dilution by viable plate count method. The assay is classed as functional.
In the next assay the test system is Acinetobacter baumannii. The assay can be described thus: Antibacterial activity against Acinetobacter baumannii assessed as post-antibiotic sub-MIC effect at 0.2 times MIC concentration pretreated with 6 times MIC concentration for 1 hr followed by 1:1000 dilution by viable plate count method. The assay is classed as functional.
The subject of assay [3] is Staphylococcus aureus. Nature of the assay: Antibacterial activity against vancomycin-sensitive methicillin-resistant Staphylococcus aureus assessed as sub-MIC effect at 0.4 times MIC concentration incubated for 1 hr by viable plate count method. The assay is classed as functional.
The subject of assay [4] is Escherichia coli. The assay can be described thus: Antibacterial activity against Escherichia coli assessed as sub-MIC effect at 0.4 times MIC concentration incubated for 1 hr by viable plate count method. The assay is classed as functional.
For assay [5], the system named is Haemophilus influenzae. Nature of the assay: Antibacterial activity against beta-lactamase deficient ampicillin-resistant Haemophilus influenzae assessed as post-antibiotic sub-MIC effect at 0.3 times MIC concentration pretreated with 10 times MIC concentration for 1 hr followed by 1:1000 dilution by viable plate count method. The assay is classed as functional.

Assay [6] deals with Streptococcus pneumoniae. The assay can be described thus: Antibacterial activity against penicillin-susceptible Streptococcus pneumoniae assessed as sub-MIC effect at 0.2 times MIC concentration incubated for 1 hr by viable plate count method. It counts as functional.
The subject of assay [7] is Enterobacter cloacae. Nature of the assay: Antibacterial activity against Enterobacter cloacae assessed as post antibiotic effect at 2 times MIC concentration incubated for 1 hr measured after 1:1000 dilution by viable plate count method. The assay is classed as functional.
Another assay relates to Enterococcus faecalis. Nature of the assay: Antibacterial activity against vancomycin-resistant Enterococcus faecalis assessed as post antibiotic effect at 10 times MIC concentration incubated for 1 hr measured after 1:1000 dilution by viable plate count method. It counts as functional.
In assay [8] the test system is Enterobacter cloacae. Nature of the assay: Antibacterial activity against Enterobacter cloacae by macrodilution method. It counts as functional.
Assay [9] deals with Haemophilus influenzae. Nature of the assay: Antibacterial activity against amoxicillin, clavulanate-resistant Haemophilus influenzae expressing beta-lactamase by macrodilution method. It counts as functional.
Assay [10] deals with Staphylococcus aureus. The assay can be described thus: Antibacterial activity against vancomycin-intermediate methicillin-resistant Staphylococcus aureus by macrodilution method. It counts as functional.
Assay [11] has as its system Streptococcus pneumoniae. Nature of the assay: Antibacterial activity against Streptococcus pneumoniae infected in neutropenic mouse thighs assessed as post antibiotic effect. The assay is classed as functional, Thigh muscle.
The subject of assay [12] is Escherichia coli. Nature of the assay: Antibacterial activity against Escherichia coli infected in neutropenic mouse thighs assessed as post antibiotic effect. The assay is classed as functional, Thigh muscle.

In brackets after ≈: the same amount, converted by molar mass.

Consider `CN(C)c1cc(NC(=O)CNC(C)(C)C)c(O)c2c1C[C@H]1C[C@H]3[C@H](N(C)C)C(O)=C(C(N)=O)C(=O)[C@@]3(O)C(O)=C1C2=O` [TIGECYCLINE], for which the PAE with Staphylococcus aureus [1] is 6.6 h; in the assay on Enterobacter cloacae [2], 2.9 h; in the assay with Acinetobacter baumannii, 5.2 h; with Staphylococcus aureus [3] it was 0.9 h; with Escherichia coli [4] it was 0.1 h; in the assay with Haemophilus influenzae [5], 2.8 h. Besides, the PAE in the assay with Streptococcus pneumoniae [6] was 0 h; with Enterobacter cloacae [7], 1 h; in the assay on Enterococcus faecalis, 6 h; in the assay with Streptococcus pneumoniae [11] it was 8.9 h; in the assay on Escherichia coli [12], 4.9 h. The figures for the MIC in the assay on Enterobacter cloacae [8], in the assay with Haemophilus influenzae [9] and against Staphylococcus aureus [10] were 0.5 µg/mL (≈ 0.854 µM), 0.12 µg/mL and 0.12 µg/mL (≈ 0.205 µM), respectively.
